Measured values as given in patent US20250339377A1, “PHARMACEUTICAL COMPOSITION OF NUCLEOSIDE-DERIVED COMPOUND, PREPARATION METHOD THEREFOR, AND USE THEREOF” (SHENZHEN ANTIV PHARMA CO., LTD., priority 2022, published 2025).

Tests used:
Format in all cases: physicochemical
[1] = Micromeritic properties of API and formula powders
Excerpt: Detection of micromeritic properties: The micromeritic properties of the SHEN26 compound raw material and the micromeritic properties of the mixed powder obtained by directly mixing the SHEN26 compound and other auxiliary materials were detected.
Preparation method: pulverizing the compound SHEN26, sieving the compound (sieving separately with a 40-mesh sieve and a 60-mesh sieve), mixing with a pharmaceutically acceptable excipient, performing dry granulation, adding an external lubricant, mixing, and filling capsules to give a capsule of the compound SHEN26. Observation of phenomenon: After dry granulation, the micromeritic properties were examined, and the results are shown in Table 12. Dissolution detection: The compound SHEN26 capsules obtained in Example 4 were separately detected for the dissolution, and the results are shown in Table 13.

[2] = Stability investigation - related substance; settings: API, package N/A, condition N/A
Experimental: 37167-054A and 37167-054B were packed as described in Table 17 and Table 18, then separately placed under illumination (open), 40° C./75% RH (open), and 40° C./75% RH (closed) conditions for 0 day, 10 days, and 30 days, and detected for the dissolution and related substance.

[3] = Compatibility of raw material and auxiliary material; settings: 60° C., 25° C./90% RH, 40° C./75% RH, illumination; 30 days
Excerpt: Operation: Common auxiliary materials of solid oral dosage forms were selected to be mixed with the SHEN26 drug substance in different ratios, and the mixtures were placed under different conditions and separately taken out at different time points. The compatibility of the drug substance and the auxiliary materials was judged by taking the appearance, the hygroscopic weight gain, the content and the related substance as indexes. For the ratio of the raw and auxiliary materials, according to “Basic Technical Guidelines for Research of Chemical Drug Formulation” and the specification of the formulation, the auxiliary material with a relatively large amount was determined according to a ratio of main drug:diluent=1:5, the auxiliary material with a moderate amount (such as croscarmellose sodium) was mixed according to a ratio of main drug:disintegrant=1:1, and the auxiliary material with a relatively small amount (such as magnesium stearate) was mixed according to a ratio of main drug:lubricant=5:1. The manufacturer information of the raw and auxiliary materials in the compatibility experiment and the ratio of raw and auxiliary materials are shown in Table 16. […]

SMILES: CC(C)C(=O)OC[C@H]1O[C@@](C#N)(c2ccc3c(N)ncnn23)[C@H](O)[C@@H]1O [SHEN26]
- Angle of repose (°) [1]: 40.98 °
- Bulk density [1]: 0.53 g/mL
- Carr index (%) [1]: 27.40%
- Tap density [1]: 0.73 g/mL
- Related substance % RRT 0.37 [2]: 0.26%
- Related substance % RRT 0.54 [2]: 0.35%
- Related substance % RRT 1.03 [2]: 0.15%
- Related substance % RRT 1.30 [2]: 0.05%
- Total impurity % [2]: 0.81%
- Compatibility with auxiliary materials (appearance, hygroscopic weight gain, content, related substance) [3]: good compatibility
